For 24 compounds, CC50 and IC50 results are on record in patent US8759318B2, “Phosphoramidate derivatives of guanosine nucleoside compounds for treatment of viral infections” (Inhibitex, Inc., priority 2009, dated 2014).

One series in a line: in vitro. The settings on record: human.
Series [1] has as its system HCV replicon (Genotype 1b). Nature of the series: Luciferase genotype 1b replicon potency assay. The note with it: Hepatitis C virus, GETYPE1B, read-out: IC50 μM, HCV genotype 1b luciferase replicon, Renilla luciferase reporter. Background: In antiviral work, replicon cells carry a viral genome segment that copies itself.

What is called IC50 is the concentration needed to halve the response being measured. Take `COc1nc(N)nc2c1ncn2C1O[C@H](COP(=O)(N[C@@H](C)C(=O)OC2CCOCC2)Oc2ccc3ncccc3c2)[C@@H](O)[C@@]1(C)O` (stereo partly drawn) [Example 34, (2S)-tetrahydro-2H-pyran-4-yl 2-((((2R,3R,4R)-5-(2-amino-6-methoxy-9H-purin-9-yl)-3,4-dihydroxy-4-methyltetrahydrofuran-2-yl)methoxy)(quinolin-6-yloxy)phosphorylamino)propanoate]: the CC50 in the series “in vitro” was > 100 µM. Further, the IC50 in series [1] worked out at 1.1 µM.

Consider `COc1nc(N)nc2c1ncn2C1O[C@H](COP(=O)(N[C@H](C(=O)OCc2ccccc2)c2ccccc2)Oc2cccc3ccccc23)[C@@H](O)[C@@]1(C)O` (some centres unmarked) [Example 63], for which, in “in vitro”, the CC50 stood at 50 µM. Besides, the IC50 in series [1] turned out to be 0.028 µM. For `COC(=O)[C@@H](C)c1ccc2cc(OP(=O)(N[C@@H](C)C(=O)OCc3ccc(F)cc3F)OC[C@H]3OC(n4cnc5c(OC)nc(N)nc54)[C@](C)(O)[C@@H]3O)ccc2c1` (stereo partly drawn) [Example 27, (2S)-2,4-difluorobenzyl 2-((((2R,3R,4R)-5-(2-amino-6-methoxy-9H-purin-9-yl)-3,4-dihydroxy-4-methyltetrahydrofuran-2-yl)methoxy)(6-((S)-1-methoxy-1-oxopropan-2-yl)naphthalen-2-yloxy)phosphorylamino)propanoate] the same measures were 28 µM and 0.055 µM. In “in vitro”, `CCOc1nc(N)nc2c1ncn2C1O[C@H](COP(=O)(N[C@@H](C)C(=O)O[C@@H](C)c2ccccc2)Oc2cccc3ccccc23)[C@@H](O)[C@@]1(C)O` (stereo partly drawn) [Example 75, (2S)-((S)-1-phenylethyl) 2-((((2R,3R,4R)-5-(2-amino-6-ethoxy-9H-purin-9-yl)-3,4-dihydroxy-4-methyltetrahydrofuran-2-yl)methoxy)(naphthalen-1-yloxy)phosphorylamino)propanoate] returned a CC50 of 12 µM. Further, the concentration for half-maximal inhibition (IC50) in series [1] stood at 0.063 µM.

In “in vitro”, `COc1nc(N)nc2c1ncn2C1O[C@H](COP(=O)(N[C@H](C(=O)OC2CCCC2)C(C)C)Oc2cccc3ccccc23)[C@@H](O)[C@@]1(C)O` (some centres unmarked) [Example 45] displayed a CC50 of 56 µM. Further, the IC50 in series [1] was determined as 0.33 µM.

`COc1nc(N)nc2c1ncn2C1O[C@H](COP(=O)(N[C@@H](C)C(=O)OCc2ccccc2)Oc2cccc3ccccc23)C[C@@]1(C)O` (stereo partly drawn) [Example 95, (2S)-benzyl 2-((((2S,4R)-5-(2-amino-6-methoxy-9H-purin-9-yl)-4-hydroxy-4-methyltetrahydrofuran-2-yl)methoxy)(naphthalen-1-yloxy)phosphorylamino)propanoate] displayed a CC50 in “in vitro” of 70 µM. Also, in series [1], the IC50 is 0.9 µM. In the series “in vitro”, `COc1nc(N)nc2c1ncn2C1O[C@H](COP(=O)(N[C@@H](C)C(=O)OCC(C)(C)C)Oc2ccccc2)[C@@H](O)[C@@]1(C)O` (stereo partly drawn) [Example 35, (2S)-neopentyl 2-((((2R,3R,4R)-5-(2-amino-6-methoxy-9H-purin-9-yl)-3,4-dihydroxy-4-methyltetrahydrofuran-2-yl)methoxy)(phenoxy)phosphorylamino)propanoate] yielded a CC50 of 38 µM. The IC50 in series [1] came to 0.049 µM. The like results for `CCOc1nc(N)nc2c1ncn2C1O[C@H](COP(=O)(N[C@H](C(=O)OCC(C)(C)C)C(C)C)Oc2cccc3ccccc23)[C@@H](O)[C@@]1(C)O` (stereo partly drawn) [Example 79, (2S)-neopentyl 2-((((2R,3R,4R)-5-(2-amino-6-ethoxy-9H-purin-9-yl)-3,4-dihydroxy-4-methyltetrahydrofuran-2-yl)methoxy)(naphthalen-1-yloxy)phosphorylamino)-3-methylbutanoate] were, in that order, 24 µM and 0.22 µM. In turn, `COc1nc(N)nc2c1ncn2C1O[C@H](CO[P@@](=O)(N[C@@H](C)C(=O)OCC(C)(C)C)Oc2cccc3ccccc23)[C@@H](O)[C@@]1(C)O` (some centres unmarked) [Example 21] gave a CC50 in the series “in vitro” of 13 µM. Also, the 50% inhibitory concentration (IC50) in series [1] was 0.043 µM.

With `COc1nc(N)nc2c1ncn2C1O[C@H](COP(=O)(N[C@H](C(=O)OCC(C)(C)C)C(C)C)Oc2cccc3cccnc23)[C@@H](O)[C@@]1(C)O` (stereo partly drawn) [Example 53, (2S)-neopentyl 2-((((2R,3R,4R)-5-(2-amino-6-methoxy-9H-purin-9-yl)-3,4-dihydroxy-4-methyltetrahydrofuran-2-yl)methoxy)(quinolin-8-yloxy)phosphorylamino)-3-methylbutanoate], the CC50 in “in vitro” is > 100 µM. For the same compound, the IC50 in series [1] was determined as 0.88 µM.

Turning to `COc1nc(N)nc2c1ncn2C1O[C@H](COP(=O)(N[C@@H](C)C(=O)OCC(C)(C)C)Oc2ccc3ncccc3c2)[C@@H](O)[C@@]1(C)O` (stereo partly drawn) [Example 33, (2S)-neopentyl 2-((((2R,3R,4R)-5-(2-amino-6-methoxy-9H-purin-9-yl)-3,4-dihydroxy-4-methyltetrahydrofuran-2-yl)methoxy)(quinolin-6-yloxy)phosphorylamino)propanoate], the CC50 in the series “in vitro” is > 100 µM. In addition, the IC50 in series [1] amounted to 0.26 µM. For `COc1nc(N)nc2c1ncn2C1O[C@H](COP(=O)(N[C@@H](CCSC)C(=O)OCC(C)(C)C)Oc2cccc3ccccc23)[C@@H](O)[C@@]1(C)O` (some centres unmarked) [Example 60] the same measures were 28 µM and 0.06 µM. Regarding `COc1nc(NCc2ccc(F)cc2)nc2c1ncn2[C@@H]1O[C@H](COP(=O)(N[C@@H](C)C(=O)OCC(C)(C)C)Oc2cccc3ccccc23)[C@@H](O)[C@@]1(C)O` (stereo partly drawn) [Example 93, (2S)-neopentyl 2-((((2R,3R,4R,5R)-5-(2-(4-fluorobenzylamino)-6-methoxy-9H-purin-9-yl)-3,4-dihydroxy-4-methyltetrahydrofuran-2-yl)methoxy)(naphthalen-1-yloxy)phosphorylamino)propanoate], the CC50 in “in vitro” turned out to be 17 µM. For the same compound, the concentration for half-maximal inhibition (IC50) in series [1] is 7.2 µM. For `CSc1nc(N)nc2c1ncn2[C@@H]1O[C@H](COP(=O)(N[C@@H](C)C(=O)OCC(C)(C)C)Oc2ccc3ncccc3c2)[C@@H](O)[C@@]1(C)O` (stereo partly drawn) [Example 91, (2S)-neopentyl 2-((((2R,3R,4R,5R)-5-(2-amino-6-(methylthio)-9H-purin-9-yl)-3,4-dihydroxy-4-methyltetrahydrofuran-2-yl)methoxy)(quinolin-6-yloxy)phosphorylamino)propanoate] the same measures were > 100 µM and 0.26 µM. For the compound `COc1nc(N)nc2c1ncn2C1O[C@H](COP(=O)(N[C@@H](C)C(=O)OCC(C)C)Oc2cccc3ccccc23)[C@@H](O)[C@@]1(C)O` (stereo partly drawn) [Example 19, (2S)-isobutyl 2-((((2R,3R,4R)-5-(2-amino-6-methoxy-9H-purin-9-yl)-3,4-dihydroxy-4-methyltetrahydrofuran-2-yl)methoxy)(naphthalen-1-yloxy)phosphorylamino)propanoate], in the series “in vitro”, the CC50 was determined as 14 µM. Besides, the IC50 in series [1] worked out at 0.037 µM.

In turn, `COc1nc(N)nc2c1ncn2C1O[C@H](COP(=O)(N[C@@H](C)C(=O)O[C@@H](C)c2ccccc2)Oc2cccc3ccccc23)C[C@@]1(C)O` (stereo partly drawn) [Example 96, (2S)-((S)-1-phenylethyl) 2-((((2S,4R)-5-(2-amino-6-methoxy-9H-purin-9-yl)-4-hydroxy-4-methyltetrahydrofuran-2-yl)methoxy)(naphthalen-1-yloxy)phosphorylamino)propanoate] returned a CC50 in the series “in vitro” of 20 µM. The concentration for half-maximal inhibition (IC50) in series [1] was > 10 µM. The like results for `CCOc1nc(N)nc2c1ncn2C1O[C@H](COP(=O)(N[C@@H](C)C(=O)OCc2ccccc2)Oc2cccc3ccccc23)[C@@H](O)[C@@]1(C)O` (stereo partly drawn) [Example 73, (2S)-benzyl 2-((((2R,3R,4R)-5-(2-amino-6-ethoxy-9H-purin-9-yl)-3,4-dihydroxy-4-methyltetrahydrofuran-2-yl)methoxy)(naphthalen-1-yloxy)phosphorylamino)propanoate] were, in that order, 11 µM and 0.037 µM. For `COc1nc(N)nc2c1ncn2C1O[C@H](COP(=O)(N[C@H](C(=O)OCc2ccc(F)cc2F)C(C)C)Oc2ccc3ncccc3c2)[C@@H](O)[C@@]1(C)O` (stereo partly drawn) [Example 51, (2S)-2,4-difluorobenzyl 2-((((2R,3R,4R)-5-(2-amino-6-methoxy-9H-purin-9-yl)-3,4-dihydroxy-4-methyltetrahydrofuran-2-yl)methoxy)(quinolin-6-yloxy)phosphorylamino)-3-methylbutanoate] the same measures were > 100 µM and 0.11 µM. With `COc1nc(N)nc2c1ncn2C1O[C@H](COP(=O)(N[C@@H](C)C(=O)OC2CCOCC2)Oc2cccc3ccccc23)[C@@H](O)[C@@]1(C)O` (stereo partly drawn) [Example 26, (2S)-tetrahydro-2H-pyran-4-yl 2-((((2R,3R,4R)-5-(2-amino-6-methoxy-9H-purin-9-yl)-3,4-dihydroxy-4-methyltetrahydrofuran-2-yl)methoxy)(naphthalen-1-yloxy)phosphorylamino)propanoate], the CC50 in “in vitro” turned out to be 130 µM. Also, the IC50 in series [1] was 0.08 µM. For `COc1nc(N)nc2c1ncn2C1O[C@H](COP(=O)(N[C@@H](C)C(=O)O[C@@H](C)c2ccccc2)Oc2cccc3ccccc23)[C@@H](O)[C@@]1(C)O` (some centres unmarked) [Example 15] the same measures were 12 µM and 0.032 µM.

Consider `CCCOC(=O)[C@@H](NP(=O)(OC[C@H]1OC(n2cnc3c(OC)nc(N)nc32)[C@](C)(O)[C@@H]1O)Oc1cccc2ccccc12)c1ccccc1` (some centres unmarked) [Example 65], for which the half-inhibitory concentration (IC50) in series [1] is 0.086 µM. `COc1nc(N)nc2c1ncn2C1O[C@H](COP(=O)(N[C@@H](C(=O)OCc2ccccc2)c2ccccc2)Oc2cccc3ccccc23)[C@@H](O)[C@@]1(C)O` (some centres unmarked) [compound 68] yielded a CC50 in “in vitro” of 50 µM. Turning to `COc1nc(N)nc2c1ncn2C1O[C@H](COP(=O)(N[C@@H](CCSC)C(=O)OCc2ccccc2)Oc2cccc3ccccc23)[C@@H](O)[C@@]1(C)O` (stereo partly drawn) [Example 58, (2S)-benzyl 2-((((2R,3R,4R)-5-(2-amino-6-methoxy-9H-purin-9-yl)-3,4-dihydroxy-4-methyltetrahydrofuran-2-yl)methoxy)(naphthalen-1-yloxy)phosphorylamino)-4-(methylthio)butanoate], in series [1], the IC50 is 0.22 µM.

`C[C@@]1(O)[C@H](O)[C@@H](CO)O[C@H]1n1cnc2c(NCCc3ccccc3)nc(N)nc21` [Example 86, (3R,4R,5R)-2-(2-amino-6-(phenethylamino)-9H-purin-9-yl)-5-(hydroxymethyl)-3-methyltetrahydrofuran-3,4-diol]: the 50% inhibitory concentration (IC50) in series [1] stood at 23.6 µM.
